Test results taken from patent US20190054103A1, “METHOD OF TREATMENT OF TP53 WILD-TYPE TUMORS WITH 2',2'-DIFLUORO-5-AZA-2'-DEOXYCYTIDINE OR PRODRUGS THEREOF” (priority 2016, published 2019).

Columns and labels:
in vivo = details: nude, mouse, iv
[1] = Pharmacokinetics after SC administration of NUC041 in phospholipid gel depot to mice; details: analyte in plasma following SC administration of NUC041 (100 mg/kg) to mice
NCI-H460 = assay: NCI 60 Cell Line Panel growth inhibition; format: cell-based, human; details: NCI-H460, Lung-NSCL, TP53 wild type
Source text: (§1) The NCI-60 Cell Line Panel was assembled by the National Cancer Institute as an in vitro anticancer drug screen. The panel comprises human cancer cell lines representing nine different tissues of origin: breast, colon, central nervous system, renal, lung, melanoma, ovarian, prostate, and hematogenous. […] See, e.g., Leroy et al. “Analysis of TP53 Mutation Status in Human Cancer Cell Lines: a Reassesment” Hum Mutat 2014 35(6): 756-765.

NCI-H226 = assay: NCI 60 Cell Line Panel growth inhibition; format: cell-based, human; details: NCI-H226, Lung-NSCL, TP53 null/mutant
Source text: as §1

CAKI-1 = assay: NCI 60 Cell Line Panel growth inhibition; format: cell-based, human; details: CAKI-1, Renal cancer, TP53 wild type
Source text: as §1

ACHN = assay: NCI 60 Cell Line Panel growth inhibition; format: cell-based, human; details: Renal cancer, TP53 wild type
Source text: as §1

HCT-15 = assay: NCI 60 Cell Line Panel growth inhibition; format: cell-based, human; details: HCT-15, Colon cancer, TP53 null/mutant
Source text: as §1

HT29 = assay: NCI 60 Cell Line Panel growth inhibition; format: cell-based, human; details: HT29, Colon cancer, TP53 null/mutant
Source text: as §1

HL-60 = assay: NCI 60 Cell Line Panel growth inhibition; format: cell-based, human; details: HL-60, Leukemia, TP53 null/mutant
Source text: as §1

[2] = NUC013 administered IV to mice

Nc1ncn([C@@H]2O[C@H](CO)[C@@H](O)C2(F)F)c(=O)n1 [NUC013, 4-amino-1-((2R,4R,5R)-3,3-difluoro-4-hydroxy-5-(hydroxymethyl)tetrahydrofuran-2-yl)-1,3,5-triazin-2(1H)-one]
MTD at 3 weeks (in vivo): > 120 mg/kg
AUClast (area under the plasma concentration versus time curve from 0 to last quantifiable sampling time) [1]: 1939 ng·h/mL
Growth (%) at 10 μM (NCI-H460): 9.34%
Growth (%) at 10 μM (NCI-H226): 52.34%
Growth (%) at 10 μM (CAKI-1): 27.86%
Growth (%) at 10 μM (ACHN): 7.28%
Growth (%) at 10 μM (HCT-15): 52.19%
Growth (%) at 10 μM (HT29): 70.09%
Growth (%) at 10 μM (HL-60): 25.23%
half-life [2]: 20 min
